Holding throughout (experiment): UV/Vis absorption by HPLC-SEC diode array after reconstitution and purification
Type in all cases: binding
Common to all, as to conditions: 50 uM 9-cis retinal reconstitution; covalent (Schiff base to K321); pH 6.5, 20 C, LMNG/CHS

Assay [1] deals with T1, Jumping Spider Rhodopsin 1 (JSR1) (Hasarius adansoni, UniProt B1B1U5, S199V).
T1 construct: gene HaRh1; JSR1 WT + C-terminal 3C site, Twin-Strep, TEV, eGFP, His8; Hi5 insect cells (baculovirus); tags removed by HRV 3C; monomer in LMNG/CHS

Assay [2] has as its target T2, Jumping Spider Rhodopsin 1 (JSR1) (Hasarius adansoni, UniProt B1B1U5, S199I).
T2 construct: gene HaRh1; JSR1 WT + C-terminal 3C site, Twin-Strep, TEV, eGFP, His8; Hi5 insect cells (baculovirus); tags removed by HRV 3C; monomer in LMNG/CHS

Assay [3] concerns the target T3, Jumping Spider Rhodopsin 1 (JSR1) (Hasarius adansoni, UniProt B1B1U5, S199H).
T3 construct: gene HaRh1; JSR1 WT + C-terminal 3C site, Twin-Strep, TEV, eGFP, His8; Hi5 insect cells (baculovirus); tags removed by HRV 3C; monomer in LMNG/CHS

Assay [4] addresses T4, Jumping Spider Rhodopsin 1 (JSR1) (Hasarius adansoni, UniProt B1B1U5, S199F).
T4 construct: gene HaRh1; JSR1 WT + C-terminal 3C site, Twin-Strep, TEV, eGFP, His8; Hi5 insect cells (baculovirus); tags removed by HRV 3C; monomer in LMNG/CHS

The target in assay [5] is T5, Jumping Spider Rhodopsin 1 (JSR1) (Hasarius adansoni, UniProt B1B1U5, S199L).
T5 construct: gene HaRh1; JSR1 WT + C-terminal 3C site, Twin-Strep, TEV, eGFP, His8; Hi5 insect cells (baculovirus); tags removed by HRV 3C; monomer in LMNG/CHS

Assay [6] has as its target T6, Jumping Spider Rhodopsin 1 (JSR1) (Hasarius adansoni, UniProt B1B1U5, S199Y).
T6 construct: gene HaRh1; JSR1 WT + C-terminal 3C site, Twin-Strep, TEV, eGFP, His8; Hi5 insect cells (baculovirus); tags removed by HRV 3C; monomer in LMNG/CHS

The target of assay [7] is T7, Jumping Spider Rhodopsin 1 (JSR1) (Hasarius adansoni, UniProt B1B1U5).
T7 construct: gene HaRh1; JSR1 WT + C-terminal 3C site, Twin-Strep, TEV, eGFP, His8; Hi5 insect cells (baculovirus); tags removed by HRV 3C; monomer in LMNG/CHS

SMILES strings stand for the structures.

T5 sequence (B1B1U5 entry or part of it S199L): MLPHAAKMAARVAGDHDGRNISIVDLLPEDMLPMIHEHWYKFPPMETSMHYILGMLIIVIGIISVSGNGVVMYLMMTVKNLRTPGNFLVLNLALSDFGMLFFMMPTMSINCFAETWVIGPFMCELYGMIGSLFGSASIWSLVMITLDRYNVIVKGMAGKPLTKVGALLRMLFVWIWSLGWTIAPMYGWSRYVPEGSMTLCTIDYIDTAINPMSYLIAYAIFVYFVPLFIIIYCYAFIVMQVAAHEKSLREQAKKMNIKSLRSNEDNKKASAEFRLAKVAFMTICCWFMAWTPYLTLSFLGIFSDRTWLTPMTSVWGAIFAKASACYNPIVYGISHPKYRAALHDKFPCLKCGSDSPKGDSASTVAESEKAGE
T4 sequence (B1B1U5 entry or part of it S199F): as the sequence (B1B1U5 entry or part of it S199L) above, with L199F counted along it
T3 sequence (B1B1U5 entry or part of it S199H): as the sequence (B1B1U5 entry or part of it S199L) above, with L199H counted along it
T1 sequence (B1B1U5 entry or part of it S199V): as the sequence (B1B1U5 entry or part of it S199L) above, with L199V counted along it
T7 sequence (B1B1U5 entry or part of it): as the sequence (B1B1U5 entry or part of it S199L) above, with L199S counted along it
T6 sequence (B1B1U5 entry or part of it S199Y): as the sequence (B1B1U5 entry or part of it S199L) above, with L199Y counted along it
T2 sequence (B1B1U5 entry or part of it S199I): as the sequence (B1B1U5 entry or part of it S199L) above, with L199I counted along it

In the case of `CC1=C(/C=C/C(C)=C\C=C\C(C)=C\C=O)C(C)(C)CCC1` [9-cis retinal], the “UV/Vis absorption by HPLC-SEC diode array after reconstitution and purification” value in assay [1], in assay [2], in assay [3], in assay [4], in assay [5] and in assay [6] was “These mutations cause a full deprotonation in the 9-cis retinal-bound ground state” throughout. The “UV/Vis absorption by HPLC-SEC diode array after reconstitution and purification” value in assay [7] is recorded as “We observed that all mutants incorporated 9-cis retinal successfully|established workflow with 9-cis retinal-reconstituted JSR1”.
